biological target: T1, full-length human Mineralocorticoid Receptor (MR) (Homo sapiens, UniProt P08235); assay: human MR NH Pro assay (PathHunter Protein:Protein interaction assay), MR antagonism; format: cell-based; details: IP = inflection point of the dose-response curve; CHO-K1 cells overexpressing human MR, aldosterone about 0.3 nM to about 1 nM, 6 hours at 37° C.
T1 construct: host or cells: PathHunter CHO-K1 MR cells
T1 sequence (P08235 1-984): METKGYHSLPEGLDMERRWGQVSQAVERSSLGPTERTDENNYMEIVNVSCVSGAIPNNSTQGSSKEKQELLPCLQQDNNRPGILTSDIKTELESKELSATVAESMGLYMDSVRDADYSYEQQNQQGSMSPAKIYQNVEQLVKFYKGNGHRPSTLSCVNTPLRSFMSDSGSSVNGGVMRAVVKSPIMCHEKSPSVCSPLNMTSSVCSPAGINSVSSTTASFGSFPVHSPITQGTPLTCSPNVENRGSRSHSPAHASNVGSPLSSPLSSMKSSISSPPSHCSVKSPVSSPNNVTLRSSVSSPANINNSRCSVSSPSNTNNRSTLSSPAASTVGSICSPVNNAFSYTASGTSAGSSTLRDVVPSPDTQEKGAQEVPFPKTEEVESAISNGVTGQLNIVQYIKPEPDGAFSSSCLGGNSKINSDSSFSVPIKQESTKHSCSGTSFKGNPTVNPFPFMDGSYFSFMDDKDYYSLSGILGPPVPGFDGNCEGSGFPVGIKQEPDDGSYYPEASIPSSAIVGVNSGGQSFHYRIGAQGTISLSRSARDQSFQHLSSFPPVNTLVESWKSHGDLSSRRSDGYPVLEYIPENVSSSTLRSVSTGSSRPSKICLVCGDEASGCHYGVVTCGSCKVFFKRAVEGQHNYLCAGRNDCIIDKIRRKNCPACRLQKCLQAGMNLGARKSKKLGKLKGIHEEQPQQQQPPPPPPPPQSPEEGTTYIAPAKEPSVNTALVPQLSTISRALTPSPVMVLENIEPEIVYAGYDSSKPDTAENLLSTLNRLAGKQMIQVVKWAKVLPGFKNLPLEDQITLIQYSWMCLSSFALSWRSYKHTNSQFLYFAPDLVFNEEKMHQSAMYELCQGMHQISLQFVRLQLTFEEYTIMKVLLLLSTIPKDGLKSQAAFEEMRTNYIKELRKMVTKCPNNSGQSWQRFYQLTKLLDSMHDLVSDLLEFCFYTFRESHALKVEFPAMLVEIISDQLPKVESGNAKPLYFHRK
Excerpt: The activity of the compounds of the present invention regarding mineralocorticoid receptor antagonism can be evaluated using the following assay.
Assessment of MR Potency in HMR NH Pro Assay
The human MR NH Pro assay is a commercially available PathHunter™ Protein:Protein interaction assay (DiscoveRx; http://www.discoverx.com/nhrs/prod-nhrs.php) that measures the ability of compounds to antagonize full-length human Mineralocorticoid Receptor (MR) binding to a coactivator peptide.
Stock solution was prepared at 10 μM in DMSO and stored at −20° C. for assay, dilute in assay media to 1.8 or 6 nM (6× of final concentration=about 0.3 nM to about 1.0 nM)
5. Cell line: PathHunter CHO-K1 MR cells Cat #93-0456C2, Lot No: 09B0913, from operation liquid nitrogen stock.
6. Control Antagonist: Spironolactone: Sigma #S-3378 and Eplerenone Sigma #107724-20-9 (10 mM stock concentration also prepared in DMSO and stored at −20° C.).
1. Cells are grown in F12+FBS+Hygromycin+pen/strep+Genetin
2. Cells are collected with 0.05% trypsin and the cell suspension is spun and resuspended in a volume of F12+1.5% CD-FBS and counted.
3. The cells concentration was adjusted to 4×10^5 cells/mL.
4. Cells were (25 μL/well) added to the wells of a 384 well plate.
5. The plate was then incubated at 37° C. over night in a humidified incubator with 5% CO2.
6. Test compounds were titrated starting at 4.4 mM, 10-point titration in 1:3 dilution.
Protocol for 384 well plate format: 6 hr treatment:
1. 10K exponentially growing cells/well (25 μL) were resuspended in assay media and plated into each well using the Multidrop (Thermo Electron) (use white wall, clear bottom assay plates (Costar #3570) and incubated overnight at 37° C., 5% CO2.
2. 0.25 μL 120× test compound (final DMSO concentration should be <1%) was added to each well n=2, 10 point titrations starting at 36.7 μM final concentration.
4. 5 μL of assay media was added to all wells in column 23 and 24.
5. Cells were then incubated for 6 hrs at 37° C., 5% CO2.
6. 15 μL 3× DiscoveRx detection reagent was then added to each well.
7. Plates were incubated for 1 hour at room temperature in the dark.
8. Plates were read on Envision (PerkinElmer) luminesence plate reader and analyzed using ADA.

IC50 [nM] | SMILES
6 | CCC(c1ccc(C(F)(F)F)cc1)(C(O)C(F)F)n1ncc2c(NS(C)(=O)=O)cccc21 (single isomer, unassigned) [Compound 48, N-(1-(1,1-difluoro-2-hydroxy-3-(4-(trifluoromethyl)phenyl)pentan-3-yl)-1H-indazol-4-yl)methanesulfonamide]
56 | CCC(O)C(CC)(c1ccc(C#N)cc1)n1ncc2c(NS(C)(=O)=O)cccc21 (single isomer, unassigned) [Compound 15, N-(1-(3-(4-cyanophenyl)-4-hydroxyhexan-3-yl)-1H-indazol-4-yl)methanesulfonamide]
225 | CCC(c1ccc(C#N)cc1)(C(C)O)n1ncc2c(NS(C)(=O)=O)cccc21 (single isomer, unassigned) [Compound 13, N-(1-(-3-(4-cyanophenyl)-2-hydroxypentan-3-yl)-1H-indazol-4-yl)methanesulfonamide]
23 | CCC(O)C(CC(F)F)(c1ccc(C(F)(F)F)cc1)n1ncc2c(NS(C)(=O)=O)cccc21 (single isomer, unassigned) [Compound 39, N-(1-(1,1-difluoro-4-hydroxy-3-(4-(trifluoromethyl)phenyl)hexan-3-yl)-1H-indazol-4-yl)methanesulfonamide]
3610 | CCC(C(N)=O)(c1ccc(S(F)(F)(F)(F)F)cc1)n1ncc2c(NS(C)(=O)=O)cccc21 (racemic) [Compound 27, 2-{4-[(methylsulfonyl)amino]-1H-indazol-1-yl}-2-[4-(pentafluoro-λ^6-sulfanyl)phenyl]butanamide]
733 | CCC(c1ccc(Br)cc1)(C(C)O)n1ncc2c(NS(C)(=O)=O)cccc21 (single isomer, unassigned) [Compound 3, N-(1-(3-(4-bromophenyl)-2-hydroxypentan-3-yl)-1H-indazol-4-yl) methanesulfonamide]
152 | CCC(c1ccc(S(F)(F)(F)(F)F)cc1)(C(C)O)n1ncc2c(NS(C)(=O)=O)cccc21 (single isomer, unassigned) [Compound 24, N-(1-{2-hydroxy-3-[4-(pentafluoro-λ^6-sulfanyl)phenyl]pentan-3-yl}-1H-indazol-4-yl)methanesulfonamide]
11 | CCC(c1ccc(C(F)(F)F)cc1)(C(O)C(F)F)n1ncc2c(NS(=O)(=O)CC)cc(F)cc21 (single isomer, unassigned) [Compound 53, N-(1-(1,1-difluoro-2-hydroxy-3-(4-(trifluoromethyl)phenyl)pentan-3-yl)-6-fluoro-1H-indazol-4-yl)ethanesulfonamide]
18 | CCC(O)C(CC(F)F)(c1ccc(C(F)(F)F)cc1)n1ncc2c(NS(=O)(=O)CC)cccc21 (single isomer, unassigned) [Compound 55, N-(1-(1,1-difluoro-4-hydroxy-3-(4-(trifluoromethyl)phenyl)hexan-3-yl)-1H-indazol-4-yl)ethanesulfonamide]
48 | CCC(O)C(CC)(c1ccc(S(F)(F)(F)(F)F)cc1)n1ncc2c(NS(C)(=O)=O)cccc21 (single isomer, unassigned) [Compound 25, N-(1-{4-hydroxy-3-[4-(pentafluoro-λ^6-sulfanyl)phenyl]hexan-3-yl}-1H-indazol-4-yl)methanesulfonamide]
138 | CCC(O)C(CC)(c1ccc(C#N)cc1)n1ncc2c(NS(C)(=O)=O)cc(F)cc21 (single isomer, unassigned) [Compound 20, N-(1-(3-(4-cyanophenyl)-4-hydroxyhexan-3-yl)-6-fluoro-1H-indazol-4-yl)methanesulfonamide]
28 | CCC(c1ccc(C(F)(F)F)cc1)(C(O)C(F)F)n1ncc2c(NS(C)(=O)=O)cc(F)cc21 (single isomer, unassigned) [Compound 52, N-(1-(1,1-difluoro-2-hydroxy-3-(4-(trifluoromethyl)phenyl)pentan-3-yl)-6-fluoro-1H-indazol-4-l) methanesulfonamide]
1140 | CCC(c1ccc(C(F)(F)F)cc1)(C(C)O)n1ncc2c(NS(C)(=O)=O)cc(F)cc21 (single isomer, unassigned) [Compound 34, N-(6-fluoro-1-(2-hydroxy-3-(4-(trifluoromethyl)phenyl)pentan-3-yl)-1H-indazol-4-yl)methanesulfonamide]
1990 | CCC(O)C(CC)(c1ccc(Br)cc1)n1ncc2c(NS(C)(=O)=O)cccc21 (single isomer, unassigned) [Compound 7, N-(1-(3-(4-bromophenyl)-4-hydroxyhexan-3-yl)-1H-indazol-4-yl)methanesulfonamide]
3810 | CCC(c1ccc(S(F)(F)(F)(F)F)cc1)(C(C)O)n1ncc2c(NS(C)(=O)=O)cccc21 (single isomer, unassigned) [Compound 22, N-(1-{2-hydroxy-3-[4-(pentafluoro-λ^6-sulfanyl)phenyl]pentan-3-yl}-1H-indazol-4-yl)methanesulfonamide]
274 | CS(=O)(=O)Nc1cccc2c1cnn2C(CC(F)F)(C(N)=O)c1ccc(C(F)(F)F)cc1 (single isomer, unassigned) [Compound 45, 4,4-difluoro-2-(4-(methylsulfonamido)-1H-indazol-1-yl)-2-(4-(trifluoromethyl)phenyl)butanamide]
13 | CCC(c1ccc(C(F)(F)F)cc1)(C(O)C(F)F)n1ncc2c(NS(C)(=O)=O)cc(F)cc21 (single isomer, unassigned) [Compound 51, N-(1-(1,1-difluoro-2-hydroxy-3-(4-(trifluoromethyl)phenyl)pentan-3-yl)-6-fluoro-1H-indazol-4-yl) methanesulfonamide]
1370 | CCC(O)C(CC(F)F)(c1ccc(C(F)(F)F)cc1)n1ncc2c(NS(C)(=O)=O)cccc21 (single isomer, unassigned) [Compound 42, N-(1-(1,1-difluoro-4-hydroxy-3-(4-(trifluoromethyl)phenyl)hexan-3-yl)-1H-indazol-4-yl)methanesulfonamide]
10 | CCC(O)C(CC(F)F)(c1ccc(C(F)(F)F)cc1)n1ncc2c(NS(=O)(=O)CC)cccc21 (single isomer, unassigned) [Compound 56, N-(1-(1,1-difluoro-4-hydroxy-3-(4-(trifluoromethyl)phenyl)hexan-3-yl)-1H-indazol-4-yl)ethanesulfonamide]
596 | CC(O)C(CC(F)F)(c1ccc(C(F)(F)F)cc1)n1ncc2c(NS(C)(=O)=O)cccc21 (single isomer, unassigned) [Compound 38, N-(1-(1,1-difluoro-4-hydroxy-3-(4-(trifluoromethyl)phenyl)pentan-3-yl)-1H-indazol-4-yl)methanesulfonamide]
15 | CCC(O)C(CC(F)F)(c1ccc(C(F)(F)F)cc1)n1ncc2c(NS(C)(=O)=O)cccc21 (single isomer, unassigned) [Compound 40, N-(1-(1,1-difluoro-4-hydroxy-3-(4-(trifluoromethyl)phenyl)hexan-3-yl)-1H-indazol-4-yl)methanesulfonamide]
